# Values quoted from earlier work as cited in patent US9701618B2, “Cannabidiol quinone derivatives” (VIVACELL BIOTECHNOLOGY ESPAÑA S.L., priority 2014, dated 2017).
# Target: T1, PPARg (Homo sapiens, UniProt P37231)
# T1 sequence (P37231 1-505): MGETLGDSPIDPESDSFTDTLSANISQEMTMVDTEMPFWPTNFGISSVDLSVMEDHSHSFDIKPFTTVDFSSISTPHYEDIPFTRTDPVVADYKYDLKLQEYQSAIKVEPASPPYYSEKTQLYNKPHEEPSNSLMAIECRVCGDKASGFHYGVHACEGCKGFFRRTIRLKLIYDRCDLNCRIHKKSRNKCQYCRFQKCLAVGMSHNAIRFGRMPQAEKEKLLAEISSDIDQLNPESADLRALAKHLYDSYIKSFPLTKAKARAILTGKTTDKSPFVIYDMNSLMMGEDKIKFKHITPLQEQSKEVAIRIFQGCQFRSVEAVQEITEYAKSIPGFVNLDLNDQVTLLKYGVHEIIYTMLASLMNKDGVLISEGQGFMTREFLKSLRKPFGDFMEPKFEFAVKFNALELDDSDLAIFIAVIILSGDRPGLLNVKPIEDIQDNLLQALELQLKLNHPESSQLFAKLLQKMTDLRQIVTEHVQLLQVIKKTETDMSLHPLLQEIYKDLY
# Conditions: cited from earlier work
row,Substance,affinity for PPARg compared to parent molecule CBD
1,4-formyl-methoxy-CBD-quinone,higher affinity
2,4 methyl-CBD-quinone,higher affinity
3,"CBD-1,4-dihydroxyquinone",higher affinity
